In one series the target is T1, sGC (Homo sapiens, UniProt Q02153).
T1 construct: Minimum effective concentration required to stimulate cGMP production in LNCap cells; endogenous in cells; host or cells: LNCaP cells (no transfection described)
T1 sequence (Q02153 1-619): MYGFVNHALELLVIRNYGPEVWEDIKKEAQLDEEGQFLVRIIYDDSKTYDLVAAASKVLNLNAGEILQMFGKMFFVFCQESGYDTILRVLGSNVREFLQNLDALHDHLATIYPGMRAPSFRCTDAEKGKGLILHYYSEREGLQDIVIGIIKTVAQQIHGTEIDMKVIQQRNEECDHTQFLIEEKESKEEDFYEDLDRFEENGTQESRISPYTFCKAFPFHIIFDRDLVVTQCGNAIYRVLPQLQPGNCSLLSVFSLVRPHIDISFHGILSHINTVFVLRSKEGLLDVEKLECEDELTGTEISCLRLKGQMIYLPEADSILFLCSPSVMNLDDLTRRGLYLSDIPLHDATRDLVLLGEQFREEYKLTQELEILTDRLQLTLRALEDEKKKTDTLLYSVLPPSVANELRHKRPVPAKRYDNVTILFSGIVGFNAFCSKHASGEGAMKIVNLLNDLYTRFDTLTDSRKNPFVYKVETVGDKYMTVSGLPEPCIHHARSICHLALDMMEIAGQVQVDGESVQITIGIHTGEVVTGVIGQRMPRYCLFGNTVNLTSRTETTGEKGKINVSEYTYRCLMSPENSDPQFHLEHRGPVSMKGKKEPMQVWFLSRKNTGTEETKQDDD
T1 sequence (Q02108 1-690 partner): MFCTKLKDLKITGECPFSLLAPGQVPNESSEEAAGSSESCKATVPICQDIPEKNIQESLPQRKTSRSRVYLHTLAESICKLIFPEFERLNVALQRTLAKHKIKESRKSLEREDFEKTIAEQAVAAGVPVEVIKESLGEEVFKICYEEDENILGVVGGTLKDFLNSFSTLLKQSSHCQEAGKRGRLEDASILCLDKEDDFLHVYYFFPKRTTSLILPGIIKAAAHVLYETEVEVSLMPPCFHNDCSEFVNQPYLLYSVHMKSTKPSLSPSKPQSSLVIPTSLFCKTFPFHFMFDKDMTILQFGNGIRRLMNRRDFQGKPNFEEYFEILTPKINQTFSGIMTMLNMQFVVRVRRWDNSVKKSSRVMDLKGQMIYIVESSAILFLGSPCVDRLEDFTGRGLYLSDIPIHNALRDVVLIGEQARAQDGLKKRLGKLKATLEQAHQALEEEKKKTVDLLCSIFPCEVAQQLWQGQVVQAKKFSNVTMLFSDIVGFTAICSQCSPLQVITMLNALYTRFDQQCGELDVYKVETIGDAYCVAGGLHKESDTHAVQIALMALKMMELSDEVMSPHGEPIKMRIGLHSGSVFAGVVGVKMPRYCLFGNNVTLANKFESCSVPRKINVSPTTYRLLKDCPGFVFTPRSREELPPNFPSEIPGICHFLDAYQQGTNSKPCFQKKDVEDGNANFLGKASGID
The series can be described thus: cGMP expression test based on LNCap cells (HTRF, with ODQ). Format: cell-based. As for the experimental part:
I. CGMP Expression Test Based on InCap Cells
10 g of BSA was dissolved in 100 mL of double-distilled water (ddH2O) to obtain 10% BSA.
1 mg of ODQ powder was weighed and dissolved in 534 μL of DMSO to prepare 10 mM ODQ solution. The solution was aliquoted and stored in a −20° C. refrigerator.
• a) 50 μL of cGMP-D2 (D2-labeled cyclic guanosine monophosphate) was added to 1 mL of lysis buffer and mixed thoroughly. • b) 50 μL of anti-cGMP cryptate (Eu^3+ cryptate-labeled anti-cyclic guanosine monophosphate antibody) was added to 1 mL of lysis buffer and mixed thoroughly.
• (1) The compound was diluted to a concentration of 10 mM using DMSO. • (2) A serial dilution of the compound was performed, resulting in 10 different concentration levels of each compound. […]
• (1) cGMP-D2 was transferred to a 384-well plate at 5 μL per well. […] Centrifugation was performed at 1500 rpm for 1 minute. • (2) Incubation was carried out at room temperature for 1 hour. • (3) The plates were read using envision at 665/615 wavelengths.
• (1) cGMP standard curve: A standard curve was generated using GraphPad Prism, based on the ratio of cGMP concentration to the 665/615 wavelength values. • (2) Conversion of HTRF (homogeneous time-resolved fluorescence) ratio (665/615) to cGMP concentration: In GraphPad Prism, the HTRF ratio (665/615) was copied to the ratio column of the cGMP standard curve. […]
Background: Time-resolved FRET reads energy transfer from a long-lived donor to a nearby acceptor.

Series [1] can be described thus: Solid stability test (XRPD detection of crystal form). Format: physicochemical. The source says:
For samples placed under high temperature and high humidity conditions, the vial was sealed with aluminum foil punched with small holes to ensure that the samples were in full contact with the ambient air; for samples placed under strong light conditions, the vial was sealed with a threaded cap. The samples placed under different conditions were sampled and detected (XRPD) on day 5, day 10, and month 1, and the results were compared with the initial results on day 0.

The nature of series [2]: In vitro hepatocyte metabolic stability, rat. Format: in vitro ADME. Conditions: hepatocytes (cryopreserved, suspension), 0.5×10^6 cells/mL. As for the experimental part: (§1) • 1. Experimental objective: The aim of the study was to assess the stability of the compounds in hepatocytes of different species. • 2. Experimental steps:
(§2) A variety of 96-well precipitation plates were prepared and labeled as T0, T15, T30, T60, T90, T0-MC, T90-MC, and blank matrix, respectively. Revival medium and incubation medium were taken in advance and pre-warmed in a 37° C. water bath. Hepatocytes of different species, stored in a liquid nitrogen tank, were taken and immediately immersed in a 37° C. water bath for approximately 90 seconds. Once partially thawed, cells were transferred to centrifuge tubes containing 40 mL of revival medium, and gently inverted to resuspend the cells in the revival medium. At room temperature, cells were centrifuged at 100×g for 5 minutes. The supernatant was discarded, and the hepatocytes were resuspended in an appropriate volume of incubation medium. Viability was calculated using trypan blue staining. 198 μL of hepatocyte suspension (0.51×10^6 cells/mL) was added to pre-warmed incubation plates. For the control group, 198 μL of hepatocyte-free incubation medium was added to T0-MC and […] plates. All plates were pre-incubated for 10 minutes in a 37° C. incubator. […] All samples were mixed well and analyzed using LC/MS/MS methods.

Series [3] in a line: In vitro hepatocyte metabolic stability, human. The class given is in vitro ADME. Conditions: hepatocytes (cryopreserved, suspension), 0.5×10^6 cells/mL. As for the experimental part: as §1, §2
Series [4] is described as follows: In vitro hepatocyte metabolic stability, mouse. Format: in vitro ADME. To be noted: hepatocytes (cryopreserved, suspension), 0.5×10^6 cells/mL. The procedure: as §1, §2

Each structure is given as a SMILES string.

`COC12CC([C@H](CC(=O)O)c3ccc(Cl)c(NC(=O)[C@H](c4ccc(Cl)cc4)[C@@H](C)C(F)(F)F)c3)(C1)C2` showed an EC50 at sGC (cGMP production in LNCap cells) of 21.2 nM. On sGC (minimum effective concentration to stimulate cGMP production in LNCap cells (greater than three times the baseline value)), the MEC stood at 6.93 nM. Also, the Crystal form entry in series [1] (40° C./75% RH (open), Day 5) is “Crystal form A”; in series [1] (40° C./75% RH (open), Day 10) it was “Crystal form A”; in series [1] (40° C./75% RH (open), Month 1), “Crystal form A”; in series [1] (60° C./75% RH (open), Day 5), “Crystal form A”; in series [1] (60° C./75% RH (open), Day 10), “Crystal form A”; in series [1] (60° C./75% RH (open), Month 1), “Crystal form A”. The Crystal form result in series [1] (Day 0 (initial)) was “Crystal form A”; in series [1] (High humidity (25° C./relative humidity: 92.5%, open), Day 5) it was “Crystal form A”; in series [1] (High humidity (25° C./relative humidity: 92.5%, open), Day 10), “Crystal form A”; in series [1] (High humidity (25° C./relative humidity: 92.5%, open), Month 1), “Crystal form A”; in series [1] (High temperature (60° C., open), Day 5) it was “Crystal form A”; in series [1] (High temperature (60° C., open), Day 10) it was “Crystal form A”. In addition, the Crystal form result is on record as “Crystal form A” in series [1] (High temperature (60° C., open), Month 1); “Crystal form A” in series [1] (Strong light (5000 lx, sealed), Day 5); “Crystal form A” in series [1] (Strong light (5000 lx, sealed), Day 10); “Crystal form A” in series [1] (Strong light (5000 lx, sealed), Month 1).

For the compound `COC12CC([C@H](CC(=O)O)c3ccc(Cl)c(NC(=O)[C@H](c4ccc(Cl)cc4)[C@@H](C)C(F)(F)F)c3)(C1)C2` [Compound of formula (I)], the half-life at 1 μM turned out to be 1.3 h in series [2], 2.58 h in series [3] and 1.42 h in series [4]. Besides, the CLint scaled at 1 μM in series [2] (read-out: CLint (liver)) was found to be 82.9 mL/min/kg; in series [3] (read-out: CLint (liver)), 24.9 mL/min/kg; in series [4] (read-out: CLint (liver)), 193 mL/min/kg.

As a reminder, the EC50 is the concentration giving half of the maximal effect. The term half-life denotes the time needed for the level to fall by half in the phase considered.

The values above are taken from US20260174716A1, “CRYSTAL FORM OF ALKYL CARBOXYLIC ACID COMPOUND AND USE THEREOF” (CONSUN PHARMACEUTICAL (INNER MONGOLIA) CO. LTD, priority 2022, published 2026).
